Tests used:
[1] = system: Brain microsomal fractions; assay: in vitro Anti-lipid peroxidation effect (TBAR production, Fe3+-ADP/NADPH); type: biochemical, rat (SD strain, male)
Method: 1. in vitro Anti-lipid peroxidation effect
Brain microsomal fractions were prepared from male rats of SD strain, and a portion (0.2 mg protein) was incubated at 37° C. for 15 minutes with a mixture of Fe^3+ (0.1 mM)--ADP (0.5 mM) in the presence or absence of the test compound, in final volume of 1 ml of 10 mM HEPES, 150 mM KCl, 0.2 mM NADPH, pH 7.4. After incubation, 1.5 ml of TCA-TBA-HCl reagent (16.7% trichloroacetic acid, 0.4% thiobarbituric acid, 0.278N hydrochloric acid) was added and the reaction mixture was heated in a boiling water for 15 minutes. After cooling in ice-bath, the reaction mixture was centrifuged, and the absorbance of the supernatant at 535 nm was measured. The amount of thiobarbituric acid reactive substance (TBAR) was obtained by calculation using an extinction coefficient of 1.56×10^5 […]. […] The results are shown in Table 1A for compounds of the formulas IA, IB, and IC, respectively. The compounds with highest inhibition rate have the greatest anti-lipid peroxidation effect.

[2] = system: Mouse Cerebral Ischemia/Reperfusion; assay: in vivo Behavior test (Mouse Cerebral Ischemia/Reperfusion Test); design: species or system mouse (ICR strain, male)
Method: Bilateral common carotid arteries of both sides of ICR strain male mice (about 8 weeks old) were occluded for 5 minutes while lightly anesthetized, then blood was reperfuged. The test compounds were intraperitoneally administered 10 minutes before occlusion and within 3 hours after reperfusion. Since a day after reperfusion, behavior disorder was evaluated by spontaneous motor activity of exploratory behavior, traction test and passive avoidance test. That is, spontaneous motor activity was evaluated as follows. Motor activity was measured by tilting cage method for 30 minutes since immediately after a mouse was placed in a measurement cage. If the motor activity was at least more than (average of spontaneous motion of the group received solvent) +2×SD, the compound was evaluated as "active." In traction test, both fore limbs of the mouse were placed on the horizontally stretched wire. If the mouse put its hind limb within 2 seconds, the compound was estimated as "active.". In passive avoidance test, a step-through type apparatus was used, and as acquisition trial of blood reperfusion, electrical shock (about 0.5 mA, 3 seconds) was given to the mice as soon as the whole body of mice entered the black room and on the next day test trial was carried out. The mouse which stayed in a light room for at least 300 seconds was estimated as an active example. In all tests, the test compound which provided at least 50% of active animals was determined as "active." The results are shown in Table 5.

ventricular arrhythmia = assay: in vivo Ischemic heart/reperfusion test; settings: Rattus norvegicus, iv; read-out: Minimal Effective Dose (mg/kg, i.v.)
Method: 4. in vivo Ischemic heart/reperfusion test
Experiment was carried out using rats anesthetized with pentobarbital under artificial respiration. After the forth rib was excised, heart was exposed by thoracotomy, and the thread was placed under the left coronary artery at it origin. Then, the heart was returned and a thread was passed in a tube. Compounds were applied through tail vein. After 10 minutes, the thread in the tube was pulled to occlude coronary artery. Five minutes after occlusion, the thread was loosened again for reperfusion. Then, ventricular arrhythmia was recorded on electrocardiogram (lead II), by sticking needle electrodes into a right fore-limb and a left hind-limb. Duration time of ventricular tachycardia and occurrence of ventricular fibrillation caused after reperfusion were compared between a group receiving the test compounds and a similarly treated vehicle group. If either of two parameters of the group that received the test compound became less than half of that of the group that received the vehicle, the test compound was estimated as "active".

[3] = system: pig right coronary artery; assay: in vitro Ca-antagonism (high K+ induced 45Ca-influx); type: cell-based; settings: Sus scrofa, K+ 75 mM
Method: 2. in vitro Ca-antagonism
A strip of pig right coronary artery was depolarized with high K^+ (75 mM) for 30 minutes to induce voltage dependent ^45 Ca-influx. The extracellular ^45 Ca was chelated by adding EGTA and removed by washing, then the strip was lysed at 100° C. ^45 Ca in this lysate was measured as intracellular ^45 Ca by a scintillation counter. The concentration of the test compound was 10^-7, 10^-6, 10^-5 M, and applied until depolarization by K^+ was completed. Ratio of inhibition at various concentrations of the test compounds for increasing the intracellular ^45 Ca by K^+ was determined. The compound with high inhibition ratio has strong Ca-antagonism.

| SMILES | Anti-Lipid Peroxidation (% inhibition) 10 μM [1] [%] | minimal effective dose ([2]; ip) [mg/kg] | Anti-Lipid Peroxidation (% inhibition) 50 μM [1] [%] | minimal effective dose ([2]; iv) [mg/kg] | minimal effective dose (ventricular arrhythmia) [mg/kg] | inhibition at 10 µM [3] [%] |
| --- | --- | --- | --- | --- | --- | --- |
| COc1cc(C(C)C)ccc(C2Sc3ccccc3N2C)c1=O (stereo not shown) [Compound 2B, 2-(2'-oxo-3'-methoxy-5'-isopropyl-3',5',7'-cycloheptatrienyl)-3-methylbenzothiazoline] | 95.5 | 1 |  |  |  |  |
| COc1cc(C(C)C)ccc(C2Sc3ccccc3N2Cc2ccncc2)c1=O (stereo not shown) [Compound 6B, 2-(2'-oxo-3'-methoxy-5'-isopropyl-3',5',7'-cycloheptatrienyl)-3-(4-picolyl)benzothiazoline] | 93.1 |  | 96.6 | < 1 |  |  |
| COc1cc(C(C)C)ccc(C2Sc3ccccc3N2CCCN(C)CCc2ccccc2)c1=O (stereo not shown) [Compound 10B, 2-(2'-oxo-3'-methoxy-5'-isopropyl-3',5',7'-cycloheptatrienyl)-3-[3-(N-methyl-N-phenethylamino)propyl]benzothiazoline] | 93.0 |  | 94.5 |  | < 5 |  |
| COc1cc(C(C)C)ccc(C2Sc3ccccc3N2CCCN(C)C)c1=O (stereo not shown) [Compound 12B, 2-(2'-oxo-3'-methoxy-5'-isopropyl-3',5',7'-cycloheptatrienyl)-3-[3-(N,N-dimethylamino)propyl]benzothiazoline] | 89.4 | 1 |  |  |  |  |
| COc1cc(C(C)C)ccc(C2Sc3ccccc3N2CCN(C)C)c1=O (stereo not shown) [Compound 11B, 2-(2'-oxo-3'-methoxy-5'-isopropyl-3',5',7'-cycloheptatrienyl)-3-[2-(N,N-dimethylamino)ethyl]benzothiazoline] | 89.3 | 1 |  |  | < 5 |  |
| CC(C)c1ccc(CN2CCN(C(c3ccc(F)cc3)c3ccc(F)cc3)CC2)c(=O)c(N2CCOCC2)c1 [Compound 18C, 7-[4-(4,4'-difluorobenzhydryl)piperazino-1-methyl]-4-isopropyl-2-morpholino-2,4,6-cycloheptatrien-1-one] | 26.7 |  | 41.2 |  |  | 84 |
| CCN(CCN(C)C)c1cc(C(C)C)ccc(CN2CCN(C(c3ccc(F)cc3)c3ccc(F)cc3)CC2)c1=O [Compound 6C, 7-[4-(4,4'-difluorobenzhydryl)piperazino-1-methyl]-2-(N-2-dimethylaminoethyl-N-ethylamino)-4-isopropyl-2,4,6-cycloheptatrien-1-one] | 35.9 |  | 91.5 |  |  | 87 |
| CC(C)c1ccc(CN2CCN(C(c3ccc(F)cc3)c3ccc(F)cc3)CC2)c(=O)c(NCCO)c1 [Compound 13C, 7-[4-(4,4'-difluorobenzhydryl)piperazino-1-methyl]-2-(N-2-hydroxyethylamino)-4-isopropyl-2,4,6-cycloheptatrien-1-one] | 36.9 |  | 89.5 |  |  | 90 |
| COc1cc(C(C)C)ccc(CN2CCN(C(c3ccccc3)c3ccccc3)CC2)c1=O [Compound 6A, 7-(4-benzhydrylpiperazino-1-methyl)-4-isopropyl-2-methoxy-2,4,6-cycloheptatrien-1-one] | 15.9 |  | 63.2 |  |  | 100 |
| CCOC(=O)CCNc1cc(C(C)C)ccc(CN2CCN(C(c3ccc(F)cc3)c3ccc(F)cc3)CC2)c1=O [Compound 16C, ethyl 3-{N-7-[4-(4,4'-difluorobenzhydryl)piperazino-1-methyl]-4-isopropyl-1-oxo-2,4,6-cycloheptatrien-2-ylamino}propionate] | 29.1 |  | 58.0 |  |  | 47 |

Reference: patent US5594144A, “Tropolone derivatives and pharmaceutical composition thereof for preventing and treating ischemic diseases” (The Upjohn Company, priority 1990, dated 1997)
